The subject of the experiment is monocytic THP1 cells infected with HIV VSV-G pseudotyped GFP-NEF reporter virus. The experiment is described as follows: cells. Format: cell-based. As to conditions: Human immunodeficiency virus 1, THP-1, 24 h.

SMILES strings stand for the structures.

`Cc1cc(/C=C/C#N)cc(C)c1Oc1nc(NC23CC(C#N)(C2)C3)nc2c1C(C)N(c1cnn(C)c1C)C2=O` (centres unmarked) [Example 221, (E)-3-((4-(4-(2-cyanovinyl)-2,6-dimethylphenoxy)-6-(1,5-dimethyl-1H-pyrazol-4-yl)-5-methyl-7-oxo-6,7-dihydro-5H-pyrrolo[3,4-d]pyrimidin-2-yl)amino)bicyclo[1.1.1]pentane-1-carbonitrile]: the EC50 worked out at 72.9 nM. Take `Cc1cc(/C=C/C#N)cc(C)c1Oc1nc(NC23CC(C#N)(C2)C3)nc2c1C(C)N(c1cn(C)nc1C)C2=O` (centres unmarked) [Example 222, (E)-3-((4-(4-(2-cyanovinyl)-2,6-dimethylphenoxy)-6-(1,3-dimethyl-1H-pyrazol-4-yl)-5-methyl-7-oxo-6,7-dihydro-5H-pyrrolo[3,4-d]pyrimidin-2-yl)amino)bicyclo[1.1.1]pentane-1-carbonitrile]: the EC50 was found to be 70.7 nM. As for `COCn1cc(N2C(=O)c3nc(NC45CC(C#N)(C4)C5)nc(Oc4c(C)cc(/C=C/C#N)cc4C)c3C2C)cn1` (centres unmarked) [Example 223, (E)-3-((4-(4-(2-cyanovinyl)-2,6-dimethylphenoxy)-6-(1-(methoxymethyl)-1H-pyrazol-4-yl)-5-methyl-7-oxo-6,7-dihydro-5H-pyrrolo[3,4-d]pyrimidin-2-yl)amino)bicyclo[1.1.1]pentane-1-carbonitrile], the figure is 38.3 nM; as for `Cc1cc(/C=C/C#N)cc(C)c1Oc1nc(NC23CC(C#N)(C2)C3)nc2c1C(C)N(c1cnn(C3CC3)c1)C2=O` (centres unmarked) [Example 224, (E)-3-((4-(4-(2-cyanovinyl)-2,6-dimethylphenoxy)-6-(1-cyclopropyl-1H-pyrazol-4-yl)-5-methyl-7-oxo-6,7-dihydro-5H-pyrrolo[3,4-d]pyrimidin-2-yl)amino)bicyclo[1.1.1]pentane-1-carbonitrile], 51.1 nM. `Cc1cc(/C=C/C#N)cc(C)c1Oc1nc(NC23CC(C#N)(C2)C3)nc2c1C(C)N(c1cnn3c1CCC3)C2=O` (centres unmarked) [Example 225, (E)-3-((4-(4-(2-cyanovinyl)-2,6-dimethylphenoxy)-6-(5,6-dihydro-4H-pyrrolo[1,2-b]pyrazol-3-yl)-5-methyl-7-oxo-6,7-dihydro-5H-pyrrolo[3,4-d]pyrimidin-2-yl)amino)bicyclo[1.1.1]pentane-1-carbonitrile]: the EC50 is 51.8 nM.

For the molecule `Cc1cc(/C=C/C#N)cc(C)c1Oc1nc(NC23CC(C#N)(C2)C3)nc2c1C(C)N(c1cnn(C(C)C)c1)C2=O` (centres unmarked) [Example 226, (E)-3-((4-(4-(2-cyanovinyl)-2,6-dimethylphenoxy)-6-(1-isopropyl-1H-pyrazol-4-yl)-5-methyl-7-oxo-6,7-dihydro-5H-pyrrolo[3,4-d]pyrimidin-2-yl)amino)bicyclo[1.1.1]pentane-1-carbonitrile], the response was half-maximal at 84.4 nM (EC50).

`Cc1cc(/C=C/C#N)cc(C)c1Oc1nc(NC23CC(C#N)(C2)C3)nc2c1C(C)N(c1cnn(C3CCC3)c1)C2=O` (centres unmarked) [Example 227, (E)-3-((4-(4-(2-cyanovinyl)-2,6-dimethylphenoxy)-6-(1-cyclobutyl-1H-pyrazol-4-yl)-5-methyl-7-oxo-6,7-dihydro-5H-pyrrolo[3,4-d]pyrimidin-2-yl)amino)bicyclo[1.1.1]pentane-1-carbonitrile] showed an EC50 of 115 nM. Molecule `Cc1cc(/C=C/C#N)cc(C)c1Oc1nc(NC23CC(C#N)(C2)C3)nc2c1[C@H](C)N(c1cn[nH]c1)C2=O` [Example 228, (S,E)-3-((4-(4-(2-cyanovinyl)-2,6-dimethylphenoxy)-5-methyl-7-oxo-6-(1H-pyrazol-4-yl)-6,7-dihydro-5H-pyrrolo[3,4-d]pyrimidin-2-yl)amino)bicyclo[1.1.1]pentane-1-carbonitrile] registered an EC50 of 72 nM. In turn, `Cc1cc(/C=C/C#N)cc(C)c1Oc1nc(NC23CC(C#N)(C2)C3)nc2c1C(O)(C(F)F)NC2=O` (centres unmarked) [Example 229, (E)-3-((4-(4-(2-cyanovinyl)-2,6-dimethylphenoxy)-5-(difluoromethyl)-5-hydroxy-7-oxo-6,7-dihydro-5H-pyrrolo[3,4-d]pyrimidin-2-yl)amino)bicyclo[1.1.1]pentane-1-carbonitrile] displayed an EC50 of 123 nM. With `Cc1cc(/C=C/C#N)cc(C)c1Oc1nc(NC23CC(C#N)(C2)C3)nc2c1C(C)(C)N(c1cnn(C)c1)C2=O` [Example 230, (E)-3-((4-(4-(2-cyanovinyl)-2,6-dimethylphenoxy)-5,5-dimethyl-6-(1-methyl-1H-pyrazol-4-yl)-7-oxo-6,7-dihydro-5H-pyrrolo[3,4-d]pyrimidin-2-yl)amino)bicyclo[1.1.1]pentane-1-carbonitrile], it took 116 nM to reach a half-maximal effect (EC50).

On to `Cc1cc(/C=C/C#N)cc(C)c1Oc1nc(NC23CC(C#N)(C2)C3)nc2nn(-c3ccn(C)n3)cc12` [Example 231, (E)-3-((4-(4-(2-cyanovinyl)-2,6-dimethylphenoxy)-2-(1-methyl-1H-pyrazol-3-yl)-2H-pyrazolo[3,4-d]pyrimidin-6-yl)amino)bicyclo[1.1.1]pentane-1-carbonitrile], for which the EC50 is 31.1 nM. Take `Cc1cc(/C=C/C#N)cc(C)c1Oc1nc(NC23CC(C#N)(C2)C3)nc2nn(-c3cnn(C)c3)cc12` [Example 232, (E)-3-((4-(4-(2-cyanovinyl)-2,6-dimethylphenoxy)-2-(1-methyl-1H-pyrazol-4-yl)-2H-pyrazolo[3,4-d]pyrimidin-6-yl)amino)bicyclo[1.1.1]pentane-1-carbonitrile]: the EC50 was 110 nM. `Cc1cc(/C=C/C#N)cc(C)c1Oc1nc(NC23CC(C#N)(C2)C3)nc2nn(C3CCOC3)cc12` [Example 233, (R,E)-3-((4-(4-(2-cyanovinyl)-2,6-dimethylphenoxy)-2-(tetrahydrofuran-3-yl)-2H-pyrazolo[3,4-d]pyrimidin-6-yl)amino)bicyclo[1.1.1]pentane-1-carbonitrile] registered an EC50 of 158 nM. Consider `Cc1cc(/C=C/C#N)cc(C)c1Oc1nc(NC23CC(C#N)(C2)C3)nc2nn(CC(F)F)cc12` [Example 234, (E)-3-((4-(4-(2-cyanovinyl)-2,6-dimethylphenoxy)-2-(2,2-difluoroethyl)-2H-pyrazolo[3,4-d]pyrimidin-6-yl)amino)bicyclo[1.1.1]pentane-1-carbonitrile], for which the half-maximal effective concentration (EC50) was determined as 332 nM. As for `Cc1cc(/C=C/C#N)cc(C)c1Nc1nc(NC23CC(C#N)(C2)C3)nc2[nH]nc(C)c12` [Example 236, 3-[[4-[4-[(E)-2-cyanovinyl]-2,6-dimethyl-anilino]-3-methyl-11H-pyrazolo[3,4-d]pyrimidin-6-yl]amino]bicyclo[1.1.1]pentane-1-carbonitrile], the figure is 217 nM.

Regarding `Cc1cc(/C=C/C#N)cc(C)c1Nc1nc(NC23CC(C#N)(C2)C3)nc2nn(C)cc12` [Example 237, 3-[[4-[4-[(E)-2-cyanovinyl]-2,6-dimethyl-anilino]-2-methyl-pyrazolo[3,4-d]pyrimidin-6-yl]amino]bicyclo[1.1.1]pentane-1-carbonitrile], the EC50 was 119 nM. As for `Cc1cc(/C=C/C#N)cc(C)c1Oc1nc(NC23CC(C#N)(C2)C3)nc2c1C(C)(O)N(CC(F)F)C2=O` (centres unmarked) [Example 238, (E)-3-((4-(4-(2-cyanovinyl)-2,6-dimethylphenoxy)-6-(2,2-difluoroethyl)-5-hydroxy-5-methyl-7-oxo-6,7-dihydro-5H-pyrrolo[3,4-d]pyrimidin-2-yl)amino)bicyclo[1.1.1]pentane-1-carbonitrile], the figure is 92.4 nM.

A word on the EC50: it is the concentration that produces a half-maximal response. A lower EC50 goes with a more potent agent.
